From US11178873B2, “Cyclic N-carboxamide compounds useful as herbicides” (FMC CORPORATION, priority 2015, dated 2021)

What was measured:
Format in all cases: in vivo
[1] = tested on: barnyardgrass (Echinochloa crus-galli); test: Test A postemergence, barnyardgrass; conditions: 0 to 100 scale, 0 no effect, 100 complete control
From the text: (§1) Seeds of plant species selected from barnyardgrass (Echinochloa crus-galli), crabgrass, large (large crabgrass, Digitaria sanguinalis), kochia (Kochia scoparia), ragweed (common ragweed, Ambrosia elatior), morningglory (Ipomoea spp.), velvetleaf (Abutilon theophrasti), ryegrass, Italian (Italian ryegrass, Lolium multiflorum), foxtail, giant (giant foxtail, Setaria faberii), wheat (Triticum aestivum), corn (Zea mays), and pigweed (Amaranthus retroflexus), were planted into a blend of loam soil and sand and treated preemergence with a directed soil spray using test chemicals formulated in a non-phytotoxic solvent mixture which included a surfactant. At the same time, plants selected from these crop and weed species and also blackgrass (Alopecurus myosuroides), and galium (catchweed bedstraw, Galium aparine), were planted in pots containing the same blend of loam soil and sand and treated with postemergence applications of test chemicals formulated in the same manner. Plants ranged in height from 2 to 10 cm and were in the one- to two-leaf stage for the postemergence treatment. Treated plants and untreated controls were maintained in a greenhouse for approximately 10 d, after which time all treated plants were compared to untreated controls and visually evaluated for injury. Plant response ratings, summarized in Table A, are based on a 0 to 100 scale where 0 is no effect and 100 is complete control. A dash (-) response means no test result.

[2] = tested on: pigweed (Amaranthus retroflexus); test: Test A postemergence, pigweed; conditions: 0 to 100 scale, 0 no effect, 100 complete control
From the text: as §1

[3] = tested on: pigweed (Amaranthus retroflexus); test: Test A preemergence, pigweed; conditions: 0 to 100 scale, 0 no effect, 100 complete control
From the text: as §1

[4] = tested on: ragweed (common ragweed, Ambrosia elatior); test: Test A preemergence, ragweed; conditions: 0 to 100 scale, 0 no effect, 100 complete control
From the text: as §1

[5] = tested on: foxtail, giant (giant foxtail, Setaria faberii); test: Test A preemergence, foxtail, giant; conditions: 0 to 100 scale, 0 no effect, 100 complete control
From the text: as §1

[6] = tested on: blackgrass (Alopecurus myosuroides); test: Test A postemergence, blackgrass; conditions: 0 to 100 scale, 0 no effect, 100 complete control
From the text: as §1

[7] = tested on: galium (catchweed bedstraw, Galium aparine); test: Test A postemergence, galium; conditions: 0 to 100 scale, 0 no effect, 100 complete control
From the text: as §1

kochia (Kochia scoparia) [8] = test: Test A postemergence, kochia; conditions: 0 to 100 scale, 0 no effect, 100 complete control
From the text: as §1

[9] = tested on: wheat (Triticum aestivum); test: Test A postemergence, wheat; conditions: 0 to 100 scale, 0 no effect, 100 complete control
From the text: as §1

[10] = tested on: ryegrass, Italian (Italian ryegrass, Lolium multiflorum); test: Test A postemergence, ryegrass, Italian; conditions: 0 to 100 scale, 0 no effect, 100 complete control
From the text: as §1

kochia (Kochia scoparia) [11] = test: Test A preemergence, kochia; conditions: 0 to 100 scale, 0 no effect, 100 complete control
From the text: as §1

corn (Zea mays) = test: Test A postemergence, corn; conditions: 0 to 100 scale, 0 no effect, 100 complete control
From the text: as §1

[12] = tested on: ryegrass, Italian (Italian ryegrass, Lolium multiflorum); test: Test A preemergence, ryegrass, Italian; conditions: 0 to 100 scale, 0 no effect, 100 complete control
From the text: as §1

[13] = tested on: ragweed (common ragweed, Ambrosia elatior); test: Test A postemergence, ragweed; conditions: 0 to 100 scale, 0 no effect, 100 complete control
From the text: as §1

[14] = tested on: foxtail, giant (giant foxtail, Setaria faberii); test: Test A postemergence, foxtail, giant; conditions: 0 to 100 scale, 0 no effect, 100 complete control
From the text: as §1

[15] = tested on: barnyardgrass (Echinochloa crus-galli); test: Test A preemergence, barnyardgrass; conditions: 0 to 100 scale, 0 no effect, 100 complete control
From the text: as §1

[16] = tested on: barnyardgrass (Echinochloa crus-galli); test: Test B flooded paddy test, barnyardgrass; conditions: Flood, 250 g ai/ha; scale 0 to 100 (0 no effect, 100 complete control); 13 to 15 d
Protocol: (§2) Plant species in the flooded paddy test selected from rice (Oryza sativa), sedge, umbrella (small-flower umbrella sedge, Cyperus difformis), ducksalad (Heteranthera limosa), and barnyardgrass (Echinochloa crus-galli) were grown to the 2-leaf stage for testing. At time of treatment, test pots were flooded to 3 cm above the soil surface, treated by application of test compounds directly to the paddy water, and then maintained at that water depth for the duration of the test. Treated plants and controls were maintained in a greenhouse for 13 to 15 d, after which time all species were compared to controls and visually evaluated. Plant response ratings, summarized in Table B, are based on a scale of 0 to 100 where 0 is no effect and 100 is complete control. A dash (-) response means no test result.

[17] = tested on: ducksalad (Heteranthera limosa); test: Test B flooded paddy test, ducksalad; conditions: Flood, 250 g ai/ha; scale 0 to 100 (0 no effect, 100 complete control); 13 to 15 d
Protocol: as §2

[18] = tested on: sedge, umbrella (small-flower umbrella sedge, Cyperus difformis); test: Test B flooded paddy test, sedge, umbrella; conditions: Flood, 250 g ai/ha; scale 0 to 100 (0 no effect, 100 complete control); 13 to 15 d
Protocol: as §2

rice (Oryza sativa) = test: Test B flooded paddy test, rice; conditions: Flood, 250 g ai/ha; scale 0 to 100 (0 no effect, 100 complete control); 13 to 15 d
Protocol: as §2

Cc1ccc(C2CCC(=O)N2C(=O)Nc2ccccc2F)cc1 (stereo not drawn) [Compound 19]
Plant response rating, Barnyardgrass ([1]; 1000 g ai/ha): 0 | Plant response rating, Pigweed ([2]; 1000 g ai/ha): 0 | Plant response rating, Pigweed ([3]; 1000 g ai/ha): 70 | Plant response rating, Ragweed ([4]; 1000 g ai/ha): 0 | Plant response rating, Foxtail, Giant ([5]; 1000 g ai/ha): 40 | Plant response rating, Blackgrass ([6]; 1000 g ai/ha): 0 | Plant response rating, Galium ([7]; 1000 g ai/ha): 0 | Plant response rating, Kochia (kochia (Kochia scoparia) [8]; 1000 g ai/ha): 0 | Plant response rating, Wheat ([9]; 1000 g ai/ha): 0 | Plant response rating, Ryegrass, Italian ([10]; 1000 g ai/ha): 0 | Plant response rating, Kochia (kochia (Kochia scoparia) [11]; 1000 g ai/ha): 20 | Plant response rating, Corn (corn (Zea mays); 1000 g ai/ha): 0 | Plant response rating, Ryegrass, Italian ([12]; 1000 g ai/ha): 0 | Plant response rating, Ragweed ([13]; 1000 g ai/ha): 0 | Plant response rating, Foxtail, Giant ([14]; 1000 g ai/ha): 0 | Plant response rating, Barnyardgrass ([15]; 1000 g ai/ha): 40

O=C1CCC(c2ccc(Cl)cc2)N1C(=O)Nc1ccccc1C(F)(F)F (stereo not drawn) [Compound 23]
Plant response rating, Barnyardgrass ([1]; 31 g ai/ha): 0 | Plant response rating, Barnyardgrass ([1]; 125 g ai/ha): 0 | Plant response rating, Pigweed ([2]; 31 g ai/ha): 0 | Plant response rating, Pigweed ([2]; 125 g ai/ha): 0 | Plant response rating, Pigweed ([3]; 31 g ai/ha): 0 | Plant response rating, Pigweed ([3]; 125 g ai/ha): 0 | Plant response rating, Ragweed ([4]; 31 g ai/ha): 0 | Plant response rating, Ragweed ([4]; 125 g ai/ha): 0 | Plant response rating, Barnyardgrass [16]: 0 | Plant response rating, Foxtail, Giant ([5]; 31 g ai/ha): 0 | Plant response rating, Foxtail, Giant ([5]; 125 g ai/ha): 0 | Plant response rating, Blackgrass ([6]; 31 g ai/ha): 0 | Plant response rating, Blackgrass ([6]; 125 g ai/ha): 0 | Plant response rating, Galium ([7]; 31 g ai/ha): 0 | Plant response rating, Galium ([7]; 125 g ai/ha): 0 | Plant response rating, Ducksalad [17]: 0 | Plant response rating, Sedge, Umbrella [18]: 0 | Plant response rating, Kochia (kochia (Kochia scoparia) [8]; 31 g ai/ha): 0 | Plant response rating, Kochia (kochia (Kochia scoparia) [8]; 125 g ai/ha): 0 | Plant response rating, Rice (rice (Oryza sativa)): 0 | Plant response rating, Wheat ([9]; 31 g ai/ha): 0 | Plant response rating, Wheat ([9]; 125 g ai/ha): 0 | Plant response rating, Ryegrass, Italian ([10]; 31 g ai/ha): 0 | Plant response rating, Ryegrass, Italian ([10]; 125 g ai/ha): 0 | Plant response rating, Kochia (kochia (Kochia scoparia) [11]; 31 g ai/ha): 0 | Plant response rating, Kochia (kochia (Kochia scoparia) [11]; 125 g ai/ha): 0 | Plant response rating, Corn (corn (Zea mays); 31 g ai/ha): 0 | Plant response rating, Corn (corn (Zea mays); 125 g ai/ha): 0 | Plant response rating, Ryegrass, Italian ([12]; 31 g ai/ha): 0 | Plant response rating, Ryegrass, Italian ([12]; 125 g ai/ha): 0 | Plant response rating, Ragweed ([13]; 31 g ai/ha): 0 | Plant response rating, Ragweed ([13]; 125 g ai/ha): 0 | Plant response rating, Foxtail, Giant ([14]; 31 g ai/ha): 0 | Plant response rating, Foxtail, Giant ([14]; 125 g ai/ha): 0 | Plant response rating, Barnyardgrass ([15]; 31 g ai/ha): 0 | Plant response rating, Barnyardgrass ([15]; 125 g ai/ha): 0

Cc1ccc(C2CCC(=O)N2C(=O)Nc2ccc(F)c(F)c2F)cc1 (stereo not drawn) [Compound 21]
Plant response rating, Barnyardgrass ([1]; 1000 g ai/ha): 0 | Plant response rating, Pigweed ([2]; 1000 g ai/ha): 0 | Plant response rating, Pigweed ([3]; 1000 g ai/ha): 0 | Plant response rating, Ragweed ([4]; 1000 g ai/ha): 0 | Plant response rating, Foxtail, Giant ([5]; 1000 g ai/ha): 70 | Plant response rating, Blackgrass ([6]; 1000 g ai/ha): 0 | Plant response rating, Galium ([7]; 1000 g ai/ha): 0 | Plant response rating, Kochia (kochia (Kochia scoparia) [8]; 1000 g ai/ha): 0 | Plant response rating, Wheat ([9]; 1000 g ai/ha): 0 | Plant response rating, Ryegrass, Italian ([10]; 1000 g ai/ha): 0 | Plant response rating, Kochia (kochia (Kochia scoparia) [11]; 1000 g ai/ha): 0 | Plant response rating, Corn (corn (Zea mays); 1000 g ai/ha): 0 | Plant response rating, Ryegrass, Italian ([12]; 1000 g ai/ha): 0 | Plant response rating, Ragweed ([13]; 1000 g ai/ha): 0 | Plant response rating, Foxtail, Giant ([14]; 1000 g ai/ha): 0 | Plant response rating, Barnyardgrass ([15]; 1000 g ai/ha): 20

CN1CC(c2ccc(C(F)(F)F)cc2)N(C(=O)Nc2cccc(F)c2F)C1=O (stereo not drawn) [Compound 14]
Plant response rating, Barnyardgrass ([1]; 1000 g ai/ha): 0 | Plant response rating, Pigweed ([2]; 1000 g ai/ha): 0 | Plant response rating, Pigweed ([3]; 1000 g ai/ha): 0 | Plant response rating, Ragweed ([4]; 1000 g ai/ha): 0 | Plant response rating, Foxtail, Giant ([5]; 1000 g ai/ha): 70 | Plant response rating, Blackgrass ([6]; 1000 g ai/ha): 0 | Plant response rating, Galium ([7]; 1000 g ai/ha): 0 | Plant response rating, Kochia (kochia (Kochia scoparia) [8]; 1000 g ai/ha): 0 | Plant response rating, Wheat ([9]; 1000 g ai/ha): 0 | Plant response rating, Ryegrass, Italian ([10]; 1000 g ai/ha): 0 | Plant response rating, Kochia (kochia (Kochia scoparia) [11]; 1000 g ai/ha): 0 | Plant response rating, Corn (corn (Zea mays); 1000 g ai/ha): 0 | Plant response rating, Ryegrass, Italian ([12]; 1000 g ai/ha): 0 | Plant response rating, Ragweed ([13]; 1000 g ai/ha): 0 | Plant response rating, Foxtail, Giant ([14]; 1000 g ai/ha): 0 | Plant response rating, Barnyardgrass ([15]; 1000 g ai/ha): 20
